Measured values from patent US9303061B2, “Spiro compounds as Hepatitis C virus inhibitors” (Sunshine Luke Pharma Co., Ltd., priority 2011, dated 2016).

What was measured:
[1] = tested on: HCV GT1a replicon cells; experiment: HCV replicon assay, GT1a replicon cells (luciferase reporter / NEO gene qPCR); assay type: cell-based; conditions: Hepatitis C virus, GT1A, EC50 range against HCV 1a genotype, 72 hours incubation
Method: (§1) An HCV Replicon assay was utilized in the present disclosure, and was prepared, developed and validated as described in Science, 1999, 285 (5424), 110-3 and J. Virol., 2003, 77 (5), 3007-19.
(§2) HCV GT1a, GT1b and GT2a replicon cells were used to test the currently described compound series as well as wild-type cells HCV 1b and resistant cells Y93H, L31F, P32L and 1302V. GT1a, GT1b and GT2a are HCV Replicon System which is transfected HCV 1a, 1b, 2a genotype respectively. The system containing G418 resistance gene NEO and Luciferase Reporter Gene can be used to determine the level of HCV replication, and evaluate the effects of the compounds inhibiting HCV replication, by using a real-time quantitative polymerase chain reaction (qPCR) method to detect NEO, and chemiluminescence method to test Luciferase Reporter Gene.
(§3) 1. Testing EC50 of the Compounds by Luciferase Assay
(§4) The GT1a cells and GT1b cells were seeded into 96-well plates (8,000 cells in 125 μl/well) respectively; each compound was diluted to desired concentration using 5-fold serial dilutions protocol, 10 dose in duplicate, and added to wells with POD™ 810 Plate Assembler. The final concentration of DMSO was 0.5%; the plates were incubated in a CO2 incubator for 72 hours; after that, 40 μl of Luciferase assay substrate (Promega Bright-Glo) was added to each well, and detected by a chemiluminescence detection system (Topcount Microplate Scintillation and Luminescence Counter) 5 minutes later; data analysis.
(§5) 2. Testing EC50 of the Compounds by Detecting Antibiotic G418 Resistance Gene NEO Gene
(§6) The GT1a cells and GT1b cells were seeded into 96-well plates (8,000 cells in 125 μl/well) respectively; each compound was diluted to desired concentration using 5-fold serial dilutions protocol, 10 dose in duplicate, and added to wells with POD™ 810 Plate Assembler, the final concentration of DMSO was 0.5%; the cells were incubated in a CO2 incubator for 72 hours; quantitative PCR. • Sample preparation: the supernatant was removed, 100 μl of FCW buffer solution was added to each well, washed carefully and discarded the solution; 50 μl of lysate FCP was added to each well, the cells was lysed as PCR template and PCR template was diluted with DEPC water as sample template. • Quantitative PCR: preparation of reaction mixture according to PCR system; the reaction mixture was dispensed into a 384-well PCR reaction plate (specially for quantitative); and a standard template which was diluted in proportion was distributed into the plate; and the sample template was distributed into the plate; then the 384-well plate was sealed with closure plate membrane; the […] PCR machine was operated by procedures; data analysis.
(§7) 3. Data processing: EC50 values of compounds were analyzed by GRAPHPAD PRISM® software.

[2] = tested on: HCV GT1b replicon cells; experiment: HCV replicon assay, GT1b replicon cells (luciferase reporter / NEO gene qPCR); assay type: cell-based; conditions: Hepatitis C virus, GT1B, 72 h, EC50 range against HCV 1b genotype, 72 hours incubation
Method: as §1, §2, §3, §4, §5, §6, §7

SMILES	EC50 [1] [nM]	EC50 [2] [nM]
COC(=O)NC(C(=O)N1CC2(C[C@H]1c1ncc(-c3ccc(-c4ccc(-c5cnc([C@@H]6CCCN6C(=O)[C@@H](NC(=O)OC)C(C)C)[nH]5)c5c4CC4(CCCC4)C5)cc3)[nH]1)OCCO2)C(C)C (stereo partly drawn) [Example 51]	0.001 to 0.1	> 10
COC(=O)N[C@H](C(=O)N1C(c2ncc(-c3ccc(-c4ccc(-c5ccc6nc([C@@H]7CC8CC8N7C(=O)[C@@H](NC(=O)OC)C(C)C)[nH]c6c5)c5c4CC4(CCCC4)C5)cc3)[nH]2)CC2CC21)C(C)C (stereo partly drawn) [Example 54]	0.001 to 0.1	0.101 to 1
COC(=O)N[C@H](C(=O)N1CCCC1C(=O)Nc1cccc(-c2ccc(-c3ccc(-c4cnc([C@@H]5CCCN5C(=O)[C@@H](NC(=O)OC)C(C)C)[nH]4)cc3)c3c2CC2(CCCC2)C3)c1)C(C)C (stereo partly drawn) [Example 56]	0.001 to 0.1	1 to 10
